Reference: US20240390301A1, “COMBINATIONS OF PERIPHERAL 5-HT2A RECEPTOR ANTAGONISTS AND CENTRAL 5-HT2A RECEPTOR AGONISTS” (priority 2021, published 2024)

Key:
[1] = tested on: DOPR-induced head twitch response (HTR); test: Blockade of DOPR-induced head twitch response (HTR) in rats; assay type: in vivo, Sprague-Dawley rats; conditions: for Attenuation of the HTR to DOPR (significance vs. vehicle): all doses tested, SC, Dunnett's multiple comparison test; for Mean HTR (SEM): 10 min before DOPR 0.32 mg/kg SC, HTRs counted for 20 min
Protocol: FIG. 1 graphically depicts in a bar graph the effect of xylamidine pre-treatment on the HTR induced by DOPR in the rat. The indicated doses of xylamidine or vehicle were administered SC. followed 10 minutes later by DOPR (0.32 mg/kg, SC), and HTRs were counted for 20 minutes immediately after DOPR administration (10-30 min after administration of xylamidine). […] In FIG. 2, the effect of BW501C67 pre-treatment on the HTR induced by DOPR in the rat is depicted graphically in a bar graph. […] FIG. 4 graphically depicts in a bar graph the effect of sarpogrelate pre-treatment on the HTR induced by DOPR in the rat.
Animals. Adult male Sprague-Dawley rats aged 8 weeks (body weight ˜270 g) were used in these experiments. Animals were pair housed under controlled temperatures and 12-hour light/dark cycles (lights on between 07:00-19:00 h), with ad libitum food and water. The protocol was approved by the Eurofins Advinus Institutional Animal Care and Use Committee. This study was carried out in strict accordance with the recommendations in the Guide for the Care and Use of Laboratory Animals of the National Institutes of Health. All efforts were made to minimize suffering.
Drugs and Drug Administration. Test compounds were prepared as described above or commercially obtained. Drugs were dissolved in their respective vehicle solutions (see Table 4) and administered subcutaneously (SC) in a volume of 5 mL/kg (except for the experiment with sarpogrelate, where a volume of […] was used). […] The 5-HT2A receptor agonist DOPR was then administered at 1 dose (0.32 mg/kg, SC, in saline, calculated based on the free base) to all animals 10 min after pretreatment with the test peripheral antagonist or vehicle.
Procedure. Rats were administered one dose (0.01 to 100 mg/kg, SC, as indicated) of a test peripheral antagonist (or vehicle) 10 mins prior to administration of DOPR (0.32 mg/kg, SC). After administration of DOPR, rats were immediately placed into a small open field for behavioral observation.
Statistical analysis. The data points shown in Table 4 are the mean±standard error of the mean (SEM). Statistical comparisons were performed between each peripheral antagonist treatment group and its respective vehicle treatment group using Dunnett's multiple comparison test. Analysis was performed using GraphPad Prism 6.

[2] = tested on: DOPR-induced elevation of MABP; test: Effect on DOPR-induced blood pressure (MABP) elevation in anesthetized rats; assay type: in vivo, Sprague-Dawley rats
Protocol: Key peripheral 5-HT2A receptor antagonists were tested for their ability to block the increases in blood pressure (BP) induced by a maximally effective dose (in terms of HTR response) of 2,5-dimethoxy-4-propylamphetamine (DOPR) in anesthetized rats, with the key results summarized in FIGS. 5-9. FIG. 5 depicts in a bar graph the effect of xylamidine pre-treatment on DOPR-induced elevation of MABP in the rat. The indicated doses of xylamidine or vehicle were administered SC, followed 10 minutes later by DOPR (0.32 mg/kg, SC), and mean percent change in MABP relative to the baseline recording for each group was calculated for the 20 minutes immediately after DOPR administration (10-30 min after administration of xylamidine). *p<0.05, **p<0.01 vs. vehicle using Dunnett's multiple comparison test. FIG. 6 depicts in a bar graph the effect of BW501C67 pre-treatment on DOPR-induced elevation of MABP in the rat. The indicated doses of BW501C67 or vehicle were administered SC, followed 10 minutes later by DOPR (0.32mg/kg, SC), and mean percent change in MABP relative to the baseline recording for each group was calculated for the 20 minutes immediately after DOPR administration (10-30 min after administration of BW501C67). *p<0.05 vs. vehicle using Dunnett's multiple comparison test. FIG. 7 depicts in a bar graph the effect of xylamidine pre-treatment on DOPR-induced elevation of MABP in the rat. The indicated doses of xylamidine or vehicle were administered SC. followed 10 minutes later by DOPR (0.32 mg/kg, SC), and mean percent change in MABP relative to the baseline recording for each group was calculated for the period 45-55 minutes after DOPR administration (55-65 min after administration of xylamidine). *p<0.05, ***p<0.001 vs. vehicle using Dunnett's multiple comparison test. FIG. 8 depicts in a bar graph the effect of BW501C67pre-treatment on DOPR-induced elevation of MABP in the rat. The indicated doses of BW501C67or vehicle were administered SC, followed 10 minutes later by DOPR (0.32 mg/kg, SC), and mean percent change in MABP relative to the baseline recording for each group was calculated for the period 45-55 minutes after DOPR administration (55-65 min after administration of BW501C67). *p<0.05, **p<0.01, ***p<0.001 vs. vehicle using Dunnett's multiple comparison test. FIG. 9 depicts in a bar graph the effect of Compound 14a pre-treatment on DOPR-induced elevation of MABP in the rat. The indicated doses of Compound 14a or vehicle were administered SC, followed 10 minutes later by DOPR (0.32 mg/kg, SC), and mean percent change in MABP relative to the baseline recording for each group was calculated for the 20 minutes immediately after DOPR administration (10-30 min after administration of Compound 14a).
Animals. Adult male Sprague-Dawley rats aged 8 weeks (body weight ˜270 g) were used in these experiments. Animals were pair housed under controlled temperatures and 12-hour light/dark cycles (lights on between 07:00-19:00 h), with ad libitum food and water. The protocol was approved by the Eurofins Advinus Institutional Animal Care and Use Committee. […]
Drugs and Drug administration. […] The 5-HT2A receptor agonist DOPR was then administered at 1 dose (0.32 mg/kg. SC, in saline, calculated based on the free base) to all animals 10 min after pretreatment with the test peripheral antagonist or vehicle (saline). […]

[3] = 10-30 min after antagonist administration (0.01 to 10 mg/kg SC), DOPR 0.32 mg/kg SC
[4] = 55-65 min after antagonist administration (45-55 min after DOPR 0.32 mg/kg SC)

CC(C)COc1ccc(CNC(=O)N(Cc2ccc(F)cc2)C2CCN(C(=O)CC[C@H](N)C(=O)O)CC2)cc1 [Compound 14a, (S)-2-amino-5-(4-(1-(4-fluorobenzyl)-3-(4-isobutoxybenzyl)ureido)piperidin-1-yl)-5-oxopentanoic acid]
Attenuation of the HTR to DOPR (significance vs. vehicle) [1]: statistically significant attenuation of the HTR
Mean HTR (SEM) ([1]; antagonist 0.01 mg/kg SC): 2.50
Mean HTR (SEM) ([1]; antagonist 0.1 mg/kg SC): 2.00
Mean HTR (SEM) ([1]; antagonist 1 mg/kg SC): 2.17
Mean HTR (SEM) ([1]; antagonist 10 mg/kg SC): 1.83
Attenuation of DOPR-induced elevation of MABP [2, 3]: failed to significantly attenuate

COc1cccc(CCc2ccccc2OCC(CN(C)C)OC(=O)CCC(=O)O)c1 (centres unmarked) [sarpogrelate]
Attenuation of the HTR to DOPR (significance vs. vehicle) [1]: statistically significant attenuation of the HTR
Mean HTR (SEM) ([1]; antagonist 1 mg/kg SC): 2.33
Mean HTR (SEM) ([1]; antagonist 3 mg/kg SC): 1.83
Mean HTR (SEM) ([1]; antagonist 10 mg/kg SC): 1.33
Mean HTR (SEM) ([1]; antagonist 30 mg/kg SC): 1.33
Mean HTR (SEM) ([1]; antagonist 100 mg/kg SC): 0.33

CC(CNC(=N)CNc1ccccc1)Oc1cccc(Cl)c1.O=CO (centres unmarked) [BW501C67, N-(2-(3-chlorophenoxy)propyl)-2-(phenylamino)acetimidamide formate]
Attenuation of the HTR to DOPR (significance vs. vehicle) [1]: not statistically significant
Mean HTR (SEM) ([1]; antagonist 0.01 mg/kg SC): 5.83
Mean HTR (SEM) ([1]; antagonist 0.1 mg/kg SC): 2.67
Mean HTR (SEM) ([1]; antagonist 1 mg/kg SC): 5.33
Mean HTR (SEM) ([1]; antagonist 10 mg/kg SC): 4.33
Attenuation of DOPR-induced elevation of MABP [2, 3]: significantly attenuated
Attenuation of DOPR-induced elevation of MABP [2, 4]: showing activity at lower doses

COc1cccc(OC(C)CNC(=N)Cc2cccc(C)c2)c1.O=C(O)C(F)(F)F (centres unmarked) [xylamidine, N-(2-(3-methoxyphenoxy)propyl)-2-(m-tolyl) acetimidamide trifluoroacetate]
Attenuation of the HTR to DOPR (significance vs. vehicle) [1]: not statistically significant
Mean HTR (SEM) ([1]; antagonist 0.01 mg/kg SC): 7.33
Mean HTR (SEM) ([1]; antagonist 0.1 mg/kg SC): 5.00
Mean HTR (SEM) ([1]; antagonist 1 mg/kg SC): 3.17
Mean HTR (SEM) ([1]; antagonist 10 mg/kg SC): 2.83
Attenuation of DOPR-induced elevation of MABP [2, 3]: significantly attenuated
Attenuation of DOPR-induced elevation of MABP [2, 4]: showing activity at lower doses
